These results are taken from ChEMBL document CHEMBL5291721, “A preclinical secondary pharmacology resource illuminates target-adverse drug reaction associations of marketed drugs” (Nat Commun, 2023).

The structures appear in SMILES notation.

Some targets named below: Adenosine receptor A2a (Homo sapiens, UniProt P29274); Cannabinoid receptor 1 (Homo sapiens, UniProt P21554); Motilin receptor (Homo sapiens, UniProt O43193); Melanocortin receptor 3 (Homo sapiens, UniProt P41968).
The target of assay [1] is T1, Alpha-2A adrenergic receptor (Homo sapiens, UniProt P08913).
T1 sequence (P08913 whole entry): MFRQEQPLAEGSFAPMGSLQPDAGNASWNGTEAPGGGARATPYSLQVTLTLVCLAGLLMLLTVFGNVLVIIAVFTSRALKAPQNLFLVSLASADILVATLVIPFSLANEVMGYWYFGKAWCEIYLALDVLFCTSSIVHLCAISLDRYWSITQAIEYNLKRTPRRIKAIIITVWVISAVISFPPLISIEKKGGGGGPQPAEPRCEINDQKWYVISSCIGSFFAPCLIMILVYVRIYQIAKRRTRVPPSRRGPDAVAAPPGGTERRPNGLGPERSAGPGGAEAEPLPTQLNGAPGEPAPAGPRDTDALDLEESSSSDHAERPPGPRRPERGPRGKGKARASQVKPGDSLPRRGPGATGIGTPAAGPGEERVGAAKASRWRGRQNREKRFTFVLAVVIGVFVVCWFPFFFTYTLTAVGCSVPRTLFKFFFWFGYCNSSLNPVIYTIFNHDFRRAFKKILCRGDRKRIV
The assay is classed as functional, cell-based.

Assay [2] addresses T2, 5-hydroxytryptamine receptor 1A (Homo sapiens, UniProt P08908).
T2 sequence (P08908 whole entry): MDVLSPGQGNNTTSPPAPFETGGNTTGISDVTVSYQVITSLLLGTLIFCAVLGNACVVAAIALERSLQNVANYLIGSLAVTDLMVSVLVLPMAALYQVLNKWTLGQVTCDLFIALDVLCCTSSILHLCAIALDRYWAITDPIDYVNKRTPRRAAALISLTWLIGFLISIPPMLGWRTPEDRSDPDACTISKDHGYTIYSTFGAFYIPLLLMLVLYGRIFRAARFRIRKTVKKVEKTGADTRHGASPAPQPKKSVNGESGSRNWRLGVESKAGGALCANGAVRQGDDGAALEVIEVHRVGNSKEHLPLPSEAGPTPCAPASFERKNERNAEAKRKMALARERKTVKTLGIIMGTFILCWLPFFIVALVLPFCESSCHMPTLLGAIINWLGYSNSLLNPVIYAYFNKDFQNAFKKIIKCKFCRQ
The assay is classed as functional, cell-based.

The target of assay [3] is T3, Alpha-2C adrenergic receptor (Homo sapiens, UniProt P18825).
T3 sequence (P18825 whole entry): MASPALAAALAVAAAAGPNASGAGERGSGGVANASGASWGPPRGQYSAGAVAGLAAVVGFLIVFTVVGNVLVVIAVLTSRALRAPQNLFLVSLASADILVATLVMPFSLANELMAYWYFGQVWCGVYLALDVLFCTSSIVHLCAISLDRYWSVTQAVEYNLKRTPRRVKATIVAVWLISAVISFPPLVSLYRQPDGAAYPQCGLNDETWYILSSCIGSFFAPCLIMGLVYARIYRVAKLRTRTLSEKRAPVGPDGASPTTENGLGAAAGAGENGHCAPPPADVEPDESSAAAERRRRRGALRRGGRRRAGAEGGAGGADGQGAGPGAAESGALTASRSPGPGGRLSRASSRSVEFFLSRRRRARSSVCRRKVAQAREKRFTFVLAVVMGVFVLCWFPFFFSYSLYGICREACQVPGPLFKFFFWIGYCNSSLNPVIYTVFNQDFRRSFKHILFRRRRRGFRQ
The assay is classed as functional.

In another assay the target is Histamine H2 receptor (Homo sapiens, UniProt P25021). The assay is classed as functional, cell-based.
Sequence of Histamine H2 receptor (P25021 whole entry): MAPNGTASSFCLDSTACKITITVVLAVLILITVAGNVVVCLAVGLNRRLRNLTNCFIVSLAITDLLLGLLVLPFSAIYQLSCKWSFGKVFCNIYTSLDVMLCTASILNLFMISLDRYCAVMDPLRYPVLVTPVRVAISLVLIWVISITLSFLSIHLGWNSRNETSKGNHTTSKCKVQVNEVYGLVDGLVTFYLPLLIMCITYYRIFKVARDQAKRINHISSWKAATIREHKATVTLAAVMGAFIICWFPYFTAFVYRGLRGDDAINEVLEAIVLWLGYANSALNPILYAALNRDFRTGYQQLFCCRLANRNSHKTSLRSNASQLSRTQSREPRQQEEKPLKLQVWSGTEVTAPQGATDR
A further assay deals with T4, Adenosine receptor A1 (Homo sapiens, UniProt P30542).
T4 sequence (P30542 whole entry): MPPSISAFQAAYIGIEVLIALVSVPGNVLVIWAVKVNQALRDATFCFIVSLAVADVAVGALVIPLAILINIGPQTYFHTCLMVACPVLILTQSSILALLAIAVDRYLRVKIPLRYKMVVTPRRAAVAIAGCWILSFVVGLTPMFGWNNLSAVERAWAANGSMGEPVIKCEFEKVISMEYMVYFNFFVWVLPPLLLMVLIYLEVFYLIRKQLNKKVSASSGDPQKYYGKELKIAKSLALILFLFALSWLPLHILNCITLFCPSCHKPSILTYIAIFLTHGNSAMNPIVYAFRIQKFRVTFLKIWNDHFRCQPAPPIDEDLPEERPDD

Assay [4] deals with 5-hydroxytryptamine receptor 2A (Homo sapiens, UniProt P28223). The assay is classed as functional, cell-based.
Sequence of 5-hydroxytryptamine receptor 2A (P28223 whole entry): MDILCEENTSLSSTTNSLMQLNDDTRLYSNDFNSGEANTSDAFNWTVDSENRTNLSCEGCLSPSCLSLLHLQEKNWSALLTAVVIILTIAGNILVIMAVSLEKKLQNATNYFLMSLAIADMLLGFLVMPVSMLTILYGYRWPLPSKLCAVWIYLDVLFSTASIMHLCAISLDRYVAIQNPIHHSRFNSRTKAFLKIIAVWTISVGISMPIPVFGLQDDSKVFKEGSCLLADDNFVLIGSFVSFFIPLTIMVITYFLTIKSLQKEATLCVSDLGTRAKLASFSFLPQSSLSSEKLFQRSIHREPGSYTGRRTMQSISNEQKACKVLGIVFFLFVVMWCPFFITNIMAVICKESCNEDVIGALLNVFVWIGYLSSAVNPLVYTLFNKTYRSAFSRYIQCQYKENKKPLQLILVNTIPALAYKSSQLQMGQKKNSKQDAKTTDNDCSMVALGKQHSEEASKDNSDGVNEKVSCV
For assay [5], the target named is T5, Muscarinic acetylcholine receptor M2 (Homo sapiens, UniProt P08172).
T5 sequence (P08172 whole entry): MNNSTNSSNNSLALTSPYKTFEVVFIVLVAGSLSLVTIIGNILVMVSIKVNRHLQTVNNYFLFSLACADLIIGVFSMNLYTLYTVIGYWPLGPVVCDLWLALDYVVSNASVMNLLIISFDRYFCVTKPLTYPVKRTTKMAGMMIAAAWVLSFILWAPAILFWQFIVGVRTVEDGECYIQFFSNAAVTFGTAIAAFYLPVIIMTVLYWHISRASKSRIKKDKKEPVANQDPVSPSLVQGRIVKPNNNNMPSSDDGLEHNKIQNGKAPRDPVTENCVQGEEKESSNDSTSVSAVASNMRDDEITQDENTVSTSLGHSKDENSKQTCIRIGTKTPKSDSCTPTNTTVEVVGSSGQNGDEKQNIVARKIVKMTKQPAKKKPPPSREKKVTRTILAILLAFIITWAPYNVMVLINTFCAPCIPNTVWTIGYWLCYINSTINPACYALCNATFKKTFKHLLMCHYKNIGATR
The assay is classed as functional, cell-based.

The target in assay [6] is Voltage-gated inwardly rectifying potassium channel KCNH2 (Homo sapiens, UniProt Q12809). The assay is classed as functional.
Sequence of Voltage-gated inwardly rectifying potassium channel KCNH2 (Q12809 whole entry): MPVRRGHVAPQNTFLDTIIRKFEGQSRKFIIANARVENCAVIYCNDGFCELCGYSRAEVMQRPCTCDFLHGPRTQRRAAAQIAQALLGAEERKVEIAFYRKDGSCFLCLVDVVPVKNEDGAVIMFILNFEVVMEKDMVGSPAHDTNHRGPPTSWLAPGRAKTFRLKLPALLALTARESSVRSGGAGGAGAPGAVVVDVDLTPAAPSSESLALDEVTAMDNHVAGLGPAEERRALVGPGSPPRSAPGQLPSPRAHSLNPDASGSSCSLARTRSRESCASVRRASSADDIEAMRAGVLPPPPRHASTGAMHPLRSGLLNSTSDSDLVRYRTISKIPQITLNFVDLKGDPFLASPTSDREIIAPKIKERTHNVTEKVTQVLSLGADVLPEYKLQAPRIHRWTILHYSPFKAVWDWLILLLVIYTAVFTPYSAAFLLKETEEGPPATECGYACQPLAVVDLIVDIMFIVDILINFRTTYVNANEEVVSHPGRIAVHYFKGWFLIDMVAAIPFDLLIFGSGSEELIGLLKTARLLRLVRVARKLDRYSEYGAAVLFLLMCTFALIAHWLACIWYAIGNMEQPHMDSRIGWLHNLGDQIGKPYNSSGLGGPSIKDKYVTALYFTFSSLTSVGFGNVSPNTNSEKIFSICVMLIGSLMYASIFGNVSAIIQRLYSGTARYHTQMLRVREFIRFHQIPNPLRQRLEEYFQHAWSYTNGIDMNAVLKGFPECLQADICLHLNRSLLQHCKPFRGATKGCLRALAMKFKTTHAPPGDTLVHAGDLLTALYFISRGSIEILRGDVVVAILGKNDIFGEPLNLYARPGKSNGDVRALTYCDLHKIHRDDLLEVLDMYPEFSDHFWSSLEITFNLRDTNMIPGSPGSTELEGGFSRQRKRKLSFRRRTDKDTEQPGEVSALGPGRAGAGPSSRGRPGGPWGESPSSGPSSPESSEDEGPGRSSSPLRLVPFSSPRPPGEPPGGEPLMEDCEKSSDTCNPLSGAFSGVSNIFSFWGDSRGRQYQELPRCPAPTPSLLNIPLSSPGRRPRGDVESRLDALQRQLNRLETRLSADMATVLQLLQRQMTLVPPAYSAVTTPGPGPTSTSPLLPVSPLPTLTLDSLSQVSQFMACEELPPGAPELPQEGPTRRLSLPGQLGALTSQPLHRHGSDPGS
Assay [7] has as its target T2, 5-hydroxytryptamine receptor 1A. The assay is classed as functional, cell-based. The source holds these as a separate data set.
Further: assay procedure not described here.

Sequence of Adenosine receptor A2a (P29274 whole entry): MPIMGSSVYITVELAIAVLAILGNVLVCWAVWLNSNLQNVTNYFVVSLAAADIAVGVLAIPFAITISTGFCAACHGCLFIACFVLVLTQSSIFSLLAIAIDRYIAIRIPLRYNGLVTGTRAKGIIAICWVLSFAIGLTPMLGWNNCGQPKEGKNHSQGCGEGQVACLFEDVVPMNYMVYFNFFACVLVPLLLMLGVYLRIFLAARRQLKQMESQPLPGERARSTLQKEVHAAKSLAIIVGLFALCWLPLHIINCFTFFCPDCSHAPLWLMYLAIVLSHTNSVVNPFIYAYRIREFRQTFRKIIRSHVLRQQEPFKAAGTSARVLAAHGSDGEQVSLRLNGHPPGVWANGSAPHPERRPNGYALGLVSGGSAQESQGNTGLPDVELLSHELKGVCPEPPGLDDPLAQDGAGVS
Sequence of Motilin receptor (O43193 whole entry): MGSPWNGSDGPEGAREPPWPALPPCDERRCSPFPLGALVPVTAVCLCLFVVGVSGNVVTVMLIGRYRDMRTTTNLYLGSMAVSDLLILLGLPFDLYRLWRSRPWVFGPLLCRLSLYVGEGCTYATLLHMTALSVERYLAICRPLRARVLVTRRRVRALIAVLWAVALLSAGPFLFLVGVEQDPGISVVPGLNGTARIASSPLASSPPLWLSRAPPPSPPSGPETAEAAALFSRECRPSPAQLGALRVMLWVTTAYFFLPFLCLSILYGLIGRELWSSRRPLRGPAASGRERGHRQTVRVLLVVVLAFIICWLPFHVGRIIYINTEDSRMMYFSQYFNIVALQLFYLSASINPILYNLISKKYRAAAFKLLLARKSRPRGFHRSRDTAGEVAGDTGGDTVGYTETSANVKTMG
Sequence of Cannabinoid receptor 1 (P21554 whole entry): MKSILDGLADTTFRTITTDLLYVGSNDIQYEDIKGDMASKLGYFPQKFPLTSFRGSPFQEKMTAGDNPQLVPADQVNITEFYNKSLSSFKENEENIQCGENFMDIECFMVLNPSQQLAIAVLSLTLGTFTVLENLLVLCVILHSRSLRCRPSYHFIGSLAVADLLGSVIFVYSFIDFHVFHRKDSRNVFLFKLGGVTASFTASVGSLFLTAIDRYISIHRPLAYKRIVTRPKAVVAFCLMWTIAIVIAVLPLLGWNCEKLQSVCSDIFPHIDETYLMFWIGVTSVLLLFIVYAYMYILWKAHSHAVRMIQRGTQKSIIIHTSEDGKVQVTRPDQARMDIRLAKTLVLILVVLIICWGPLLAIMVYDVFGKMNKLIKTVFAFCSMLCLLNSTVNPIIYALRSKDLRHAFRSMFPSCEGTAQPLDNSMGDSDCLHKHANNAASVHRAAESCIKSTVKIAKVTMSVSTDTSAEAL
Sequence of Melanocortin receptor 3 (P41968 whole entry): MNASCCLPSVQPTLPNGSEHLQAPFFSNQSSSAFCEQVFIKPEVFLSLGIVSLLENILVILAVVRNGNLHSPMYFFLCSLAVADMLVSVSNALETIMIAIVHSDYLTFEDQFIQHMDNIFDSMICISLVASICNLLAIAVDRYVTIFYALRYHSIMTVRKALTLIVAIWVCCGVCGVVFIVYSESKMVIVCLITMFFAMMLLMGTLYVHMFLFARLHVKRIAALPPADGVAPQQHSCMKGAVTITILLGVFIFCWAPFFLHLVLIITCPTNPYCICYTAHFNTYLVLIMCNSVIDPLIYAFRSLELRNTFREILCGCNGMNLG

Turning to `C=CCNc1nc(NCC=C)nc(N2CCN(C(c3ccc(F)cc3)c3ccc(F)cc3)CC2)n1` [ALMITRINE], the AC50 (in assay [1]; in [2]; in assay [3]; on Histamine H2 receptor; on Adenosine receptor A1; in assay [4]) was above 30 µM each time. Moreover, the AC50 (at Adenosine receptor A2a; on Cannabinoid receptor 1; in [5]; in [6]; at Motilin receptor; in assay [7]) was above 30 µM each time. At Melanocortin receptor 3, the AC50 was above 30 µM.
For `CC(C)[C@H](N)C(=O)OCC(CO)OCn1cnc2c(=O)nc(N)[nH]c21` (stereo partly drawn) [VALGANCICLOVIR], the half-maximal activity concentration (AC50) (in [1]; in assay [2]; in [3]; at Histamine H2 receptor; on Adenosine receptor A1; in [4]) was above 30 µM each time. Moreover, the concentration at half-maximal activity (AC50) (at Adenosine receptor A2a; on Cannabinoid receptor 1; in assay [5]; in assay [6]; on Motilin receptor; in [7]) was above 30 µM in each case. Further, the AC50 at Melanocortin receptor 3 was above 30 µM.
Turning to `CC1OC2(CS1)CN1CCC2CC1` (stereo not drawn) [CEVIMELINE], the half-maximal activity concentration (AC50) in [1] was above 10 µM; in [2] it was above 10 µM; in assay [3], above 30 µM; on Histamine H2 receptor, above 30 µM; at Adenosine receptor A1, above 10 µM; in [4], above 10 µM. Besides, the AC50 at Adenosine receptor A2a was above 10 µM; at Cannabinoid receptor 1 it was above 10 µM; in assay [5] it was 3.03 µM; in assay [6] it was above 30 µM; on Motilin receptor, above 10 µM; in [7], above 10 µM. This compound also showed an AC50 at Melanocortin receptor 3 above 10 µM.
On to `Nc1ncn([C@H]2C[C@H](O)[C@@H](CO)O2)c(=O)n1` [DECITABINE], for which the AC50 (in assay [1]; in [2]; in assay [3]; at Histamine H2 receptor; at Adenosine receptor A1; in assay [4]) was above 30 µM each time. Further, the AC50 (at Adenosine receptor A2a; on Cannabinoid receptor 1; in assay [5]; in [6]; at Motilin receptor; in assay [7]) was above 30 µM in each case. The half-maximal activity concentration (AC50) at Melanocortin receptor 3 was above 30 µM.
In the case of `CCC1(c2ccccc2)CCC(=O)NC1=O` (stereo not drawn) [GLUTETHIMIDE], the concentration at half-maximal activity (AC50) in assay [1] is above 10 µM; in assay [2], above 30 µM; in assay [3] it was above 10 µM; on Histamine H2 receptor, above 10 µM; on Adenosine receptor A1, above 10 µM; in assay [4] it was above 30 µM. For the same compound, the AC50 was above 10 µM at Adenosine receptor A2a; above 10 µM at Cannabinoid receptor 1; above 10 µM in assay [5]; above 30 µM in assay [6]; above 10 µM at Motilin receptor; above 30 µM in [7]. Also, the AC50 at Melanocortin receptor 3 was above 10 µM.
As for `CCOC(=O)c1cncn1[C@H](C)c1ccccc1` [ETOMIDATE], the AC50 (in [1]; in [2]; in assay [3]; on Histamine H2 receptor; on Adenosine receptor A1; in assay [4]) was above 10 µM in each case. Further, the half-maximal activity concentration (AC50) on Adenosine receptor A2a is above 10 µM; on Cannabinoid receptor 1 it was above 10 µM; in assay [5], above 10 µM; in assay [6] it was above 30 µM; at Motilin receptor, above 10 µM; in assay [7], above 10 µM. The AC50 at Melanocortin receptor 3 was above 10 µM.

Usually AC50 stands for the concentration at which the activity in the assay is half-maximal.
